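Briefly, cells in 96-well plates were exposed to five compound concentrations for 48 h, and endpoints were estimated by linear interpolation. TGI denotes the concentration required for complete inhibition of growth.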
System: P388 leukemia
Assay: NCI tumour cell line growth inhibition, 48 h

Structure (SMILES): CN(N=O)C(=O)N[C@@H](C=O)[C@@H](O)[C@H](O)[C@H](O)CO
- TGI: > 504 µM

— PubChem BioAssay (NCI)
